According to patent US5876948A (priority 1991, dated 1999):
Peptide text beside a SMILES is read from it.

How the values were obtained:
hippocampal neurons [1] = assay type: cell-based, rat
hippocampal neurons [2] = assay type: cell-based, rat; remark: listed apart in the source
hippocampal neurons [3] = assay type: cell-based, rat; remark: listed apart in the source
hippocampal neurons [4] = assay type: cell-based, rat; remark: listed apart in the source
[5] = in vivo; cited from earlier work
[6] = test system: primary hippocampal neurons; test: Block of β1-40 neuronal toxicity by Substance P and analogs (therapeutic efficacy); assay type: cell-based, rat

| Compound | % Trophic Response (hippocampal neurons [1]) | neurotrophic activity / early neuronal survival (in words) (hippocampal neurons [1]) | % Toxic Response (hippocampal neurons [2]) | neurotoxic activity / late neuronal survival (in words) (hippocampal neurons [2]) | reversal of early trophic response to β1-40 (hippocampal neurons [3]) | reversal of late toxic response to β1-40 (hippocampal neurons [4]) | Therapeutic Efficacy (%): ability to block neuronal toxicity of β1-40 [6] [%] | further results |
| --- | --- | --- | --- | --- | --- | --- | --- | --- |
| CC[C@H](C)[C@H](NC(=O)[C@H](Cc1ccccc1)NC(=O)[C@H](C)NC(=O)[C@H](CC(=O)O)NC(=O)[C@H](CCCCN)NC(=O)[C@H](CO)NC(=O)[C@@H]1CCCN1C(=O)[C@@H]1CCC(=O)N1)C(=O)NCC(=O)N[C@@H](CC(C)C)C(=O)N[C@@H](CCSC)C(N)=O [Eledoisin] (HELM PEPTIDE1{[Glp].P.S.K.D.A.F.I.G.L.M.[am]}$$$$V2.0) | 0 ± 11 | no effect on early or late neuronal survival | 0 ± 6 | no effect on early or late neuronal survival | did not show significant effects | did not show significant effects |  |  |
| CSCC[C@H](NC(=O)[C@H](CC(C)C)NC(=O)CNC(=O)[C@H](Cc1ccc(O)cc1)NC(=O)[C@H](Cc1ccccc1)NC(=O)[C@H](CCCCN)NC(=O)[C@H](CC(N)=O)NC(=O)[C@@H]1CCCN1C(=O)[C@H](CC(=O)O)NC(=O)[C@H](C)NC(=O)[C@@H]1CCC(=O)N1)C(N)=O [Physalaemin] (HELM PEPTIDE1{[Glp].A.D.P.N.K.F.Y.G.L.M.[am]}$$$$V2.0) | 0 ± 4% | no effect on early or late neuronal survival | 0 ± 7% | no effect on early or late neuronal survival | almost completely reversed | almost completely reversed |  |  |
| CSCC[C@H](NC(=O)[C@H](CC(C)C)NC(=O)CNC(=O)[C@H](Cc1ccccc1)NC(=O)[C@H](Cc1ccccc1)NC(=O)[C@H](CCC(N)=O)NC(=O)[C@H](CCC(N)=O)NC(=O)[C@@H]1CCCN1C(=O)[C@H](CCCCN)NC(=O)[C@@H]1CCCN1C(=O)[C@@H](N)CCCN=C(N)N)C(N)=O [Substance P] |  |  |  |  |  |  |  | crossing of the blood-brain barrier [5]: known to cross the blood-brain barrier |
| CSCC[C@H](NC(=O)[C@H](CC(C)C)NC(=O)CNC(=O)[C@H](Cc1ccccc1)N(C)C(=O)[C@H](Cc1ccccc1)NC(=O)[C@H](CC(=O)O)NC(=O)CCC(=O)O)C(N)=O [[Succinyl-Asp^6, Me-Phe^8]-Sub P (6-11)] (HELM PEPTIDE1{[O=C(O)CCC(=O)[*:2]].D.F.[meF].G.L.M.[am]}$$$$V2.0) |  |  |  |  |  |  | 47 |  |
| CSCC[C@H](NC(=O)[C@H](CC(C)C)NC(=O)CNC(=O)[C@@H](NC(=O)[C@H](Cc1ccccc1)NC(=O)[C@H](CCC(N)=O)NC(=O)[C@H](CC(=O)O)NC(=O)[C@H](CO)NC(=O)[C@H](CCCCN)NC(=O)[C@@H]1CCCN1C(=O)[C@@H](NC(=O)[C@@H](N)CC(=O)O)C(C)C)C(C)C)C(N)=O [kassinin] (H-DVPKSDQFVGLM-NH2) |  |  |  |  | did not show significant effects | did not show significant effects |  |  |
| CC(C)C[C@H](NC(=O)[C@H](CC(C)C)NC(=O)[C@@H](Cc1c[nH]c2ccccc12)NC(=O)[C@H](Cc1ccccc1)NC(=O)[C@@H](Cc1c[nH]c2ccccc12)NC(=O)[C@H](CCC(N)=O)NC(=O)[C@H](CCC(N)=O)NC(=O)[C@@H]1CCCN1C(=O)[C@H](CCCCN)NC(=O)[C@@H]1CCCN1C(=O)[C@H](N)CCCNC(=N)N)C(N)=O [spantide, [D-Arg^1, D-Trp^7,9, Leu^11]-substance P] (HELM PEPTIDE1{[dR].P.K.P.Q.Q.[dW].F.[dW].L.L.[am]}$$$$V2.0) | 120 ± 8% | significant early neurotrophic and late neurotoxic effects | 118 ± 10% | significant early neurotrophic and late neurotoxic effects |  |  |  |  |
| Sub P, Free Acid |  |  |  |  |  |  | 53 |  |
| Sub P, Methyl Ester |  |  |  |  |  |  | 71 |  |
